From US20260001871A1, “TRIAZOLE DERIVATIVES AS MODULATORS OF MAS-RELATED G-PROTEIN RECEPTOR D” (ESCIENT PHARMACEUTICALS, INC., priority 2022, published 2026)

Biological target: human MRGPRD (Homo sapiens, UniProt Q8TDS7)
Experiment: MRGPRD antagonist activity, IP-One HTRF assay in CHO cells stably expressing human MRGPRD (versus 100 μM β-Alanine agonist)
Format: cell-based
Description: Chinese Hamster Ovary (CHO) cells stably expressing human MRGPRD (Eurofins, San Diego CA) were plated in a 384-well plate at 20,000 cells per well in 12 μL of Optimem (Fisher Scientific 11-058-021). Plates were kept in the incubator at 37° C. overnight. Antagonists were solubilized at a concentration of 10 mM in DMSO, and the agonists were solubilized to stock concentrations of either 50 mM in H2O (β-Alanine) or 10 mM in DMSO (all others) and then diluted in assay buffer (final concentrations of 5.7 mM Tris-HCl, 43 mM NaCl, 50 mM LiCl, pH=8). The concentration of DMSO was normalized across the plate. Antagonists were added to the plate using a Tecan D300 Digital Dispenser at nanoliter/picoliter volumes and 2 μL of agonists in assay buffer were added to each well for a final assay volume of 14 μL. Plates were covered and incubated for 1 h at 37° C. and then for 1 h at room temperature. IP-1 standards and HTRF detection reagents were added according to an IP-One—Gq Kit purchased from Cisbio (part number 621PAPEJ) and incubated in the dark for 1 h at room temperature. Assay plates were read on either a Molecular Devices SpectraMax iD5 plate reader or a BMG ClarioStar plate reader. The HTRF ratio was calculated form the raw data and graphed using GraphPad Prism to calculate IC50 values. Data are expressed as average IC50 values and average percent antagonism calculated as a percent of the maximum efficacy response. For these studies, the variability of the data was assessed by determining the standard error of mean (SEM).
The activity ranges are denoted as follows: “+++++” denotes antagonist activity<100 nM; “++++” denotes antagonist activity between 100 and 500 nM; “+++” denotes activity between 500 and 1000 nM; “++” denotes activity between 1000 and 3000 nM; and “+” denotes activity>3000 nM.

human MRGPRD, sequence (Q8TDS7 whole entry): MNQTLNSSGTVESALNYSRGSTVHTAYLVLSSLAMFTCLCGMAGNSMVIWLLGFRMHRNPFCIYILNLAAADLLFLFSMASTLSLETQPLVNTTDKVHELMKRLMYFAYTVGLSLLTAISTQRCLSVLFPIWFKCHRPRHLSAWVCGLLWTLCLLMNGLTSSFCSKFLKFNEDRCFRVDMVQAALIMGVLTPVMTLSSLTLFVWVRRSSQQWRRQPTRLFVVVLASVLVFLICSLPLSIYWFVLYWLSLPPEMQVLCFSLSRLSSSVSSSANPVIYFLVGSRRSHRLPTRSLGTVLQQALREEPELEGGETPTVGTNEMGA

| IC50 | Structure (SMILES) |
| --- | --- |
| 0.5 to 1 µM | O=C(Nc1ccncc1)c1nnn(-c2cccc(-c3cnn4c3CCC4)c2)c1C1CC1 [Compound 7-283] |
| 0.1 to 0.5 µM | CC(=O)c1cccc(-c2cccc(-n3nnc(C(=O)Nc4ccncc4)c3C3CC3)c2)c1 [Compound 7-237] |
| 0.1 to 0.5 µM | CCn1nc(C)c(-c2ccc(-n3nnc(C(=O)NCc4ccc(C)nc4)c3C3CC3)cc2)c1C [Compound 9-10] |
| 1 to 3 µM | O=C(Nc1ccncc1)c1nnn(-c2cccc(-c3cccc(Cl)c3)c2)c1C1CC1 [Compound 7-324] |
| 1 to 3 µM | CCc1cccc(-c2cccc(-n3nnc(C(=O)Nc4ccncc4)c3C3CC3)c2)c1 [Compound 7-323] |
| 1 to 3 µM | CC(C)(C)c1cccc(-c2ccc(-n3nnc(C(=O)Nc4ccncc4)c3C3CC3)cc2)c1 [Compound 7-201] |
| 0.5 to 1 µM | O=C(Nc1ccncc1)c1nnn(-c2cccc(-c3cnn(CC(F)(F)F)c3)c2)c1C1CC1 [Compound 7-248] |
| 1 to 3 µM | O=C(Nc1ccnc(C(F)(F)F)c1)c1nnn(-c2ccc(-c3ccccc3)cc2)c1C1CC1 [Compound 14-52] |
| 1 to 3 µM | O=C(NC1(c2cccnc2)CC1)c1nnn(-c2ccc(-c3ccccc3)cc2)c1C1CC1 [Compound 14-46] |
| 0.5 to 1 µM | O=C(Nc1ccncc1)c1nnn(-c2ccc(-c3cnn(CC(F)(F)F)c3)cc2)c1C1CC1 [Compound 7-123] |
| 0.5 to 1 µM | O=C(Nc1ccncc1)c1nnn(-c2ccc(-c3cnn(C(F)F)c3)cc2)c1C1CC1 [Compound 7-137] |
| 0.1 to 0.5 µM | Cc1c(-c2ccc(-n3nnc(C(=O)Nc4ccncc4)c3C3CC3)cc2)c(C(F)(F)F)nn1C [Compound 7-47] |
| 0.1 to 0.5 µM | CCn1cc(CNC(=O)c2nnn(-c3ccc(-c4ccc(C#N)c(F)c4)cc3)c2C2CC2)cn1 [Compound 16-4] |
| 0.1 to 0.5 µM | Cc1cc(NC(=O)c2nnn(-c3ccc(-c4ccccc4)cc3)c2C2CC2)ccn1 [Compound 7-76] |
| 0.5 to 1 µM | CC(C)n1cc(-c2cccc(-n3nnc(C(=O)Nc4ccncc4)c3C3CC3)c2)cn1 [Compound 7-251] |
| 1 to 3 µM | CCO/C=C/c1cc(-n2nnc(C(=O)Nc3ccncc3)c2C2CC2)ccc1-c1c(C)nn(C)c1C [Compound 25-2] |
| < 0.1 µM | Cc1cc(NC(=O)c2nnn(-c3ccc(-c4c(C)nn(C5CCC5)c4C)cc3)c2C2CC2)ccn1 [Compound 8-2, 1-(4-(1-cyclobutyl-3,5-dimethyl-1H-pyrazol-4-yl)phenyl)-5-cyclopropyl-N-(2-methylpyridin-4-yl)-1H-1,2,3-triazole-4-carboxamide] |
| 0.5 to 1 µM | NS(=O)(=O)c1ccc(-c2ccc(-n3nnc(C(=O)Nc4ccncc4)c3C3CC3)cc2)cc1 [Compound 7-141] |
| 0.5 to 1 µM | CC(C)n1nc(C(F)(F)F)cc1-c1ccc(-n2nnc(C(=O)Nc3ccncc3)c2C2CC2)cc1 [Compound 7-157] |
| 0.1 to 0.5 µM | CCCn1cc(-c2ccc(-n3nnc(C(=O)Nc4ccncc4)c3C3CC3)cc2)cn1 [Compound 7-86] |
| 0.1 to 0.5 µM | CN(C)c1cccc(-c2ccc(-n3nnc(C(=O)Nc4ccncc4)c3C3CC3)cc2)c1 [Compound 7-36] |
| > 3 µM | Nc1cc(-c2ccc(-n3nnc(C(=O)Nc4ccncc4)c3C3CC3)cc2)n[nH]1 [Compound 7-5] |

| IC50 | Structure (SMILES) |
| --- | --- |
| 0.1 to 0.5 µM | CCc1ccc(C2(NC(=O)c3nnn(-c4ccc(-c5ccc(C#N)cc5C)cc4)c3C3CC3)CC2)cn1 [Compound 9-17] |
| 1 to 3 µM | O=C(Nc1ccncc1)c1nnn(-c2ccc(-c3cncnc3)cc2)c1C1CC1 [Compound 7-203] |
| 1 to 3 µM | N#Cc1cccc(-c2cccc(-n3nnc(C(=O)Nc4ccncc4)c3C3CC3)c2)c1 [Compound 7-293] |
| > 3 µM | N#Cc1ccc(-n2nnc(C(=O)Nc3ccncc3)c2C2CC2)cc1 [Compound 2-1] |
| 1 to 3 µM | O=C(Nc1ccncc1)c1nnn(-c2ccc(-c3cn[nH]c3)cc2)c1C1CC1 [Compound 7-173] |
| < 0.1 µM | Cc1ccc(C2(NC(=O)c3nnn(-c4ccc(-c5c(C)nn(-c6ccccc6)c5C)cc4F)c3C3CC3)CC2)cn1 [Compound 7-225] |
| 0.5 to 1 µM | COc1ccc(-c2cccc(-n3nnc(C(=O)Nc4ccncc4)c3C3CC3)c2)cc1C [Compound 7-258] |
| 1 to 3 µM | CN(C)Cc1ccc(-c2ccc(-n3nnc(C(=O)Nc4ccncc4)c3C3CC3)cc2)cc1 [Compound 7-210] |
| 0.1 to 0.5 µM | O=C(Nc1ccncc1)c1nnn(-c2ccc(-c3cccc(C4CC4)c3)cc2)c1C1CC1 [Compound 7-56] |
| 1 to 3 µM | O=C(Nc1ccncc1)c1nnn(-c2cccc(-c3ccn[nH]3)c2)c1C1CC1 [Compound 7-295] |
| 1 to 3 µM | Cc1nn2cccnc2c1-c1ccc(-n2nnc(C(=O)Nc3ccc(NS(C)(=O)=O)cc3)c2C2CC2)cc1 [Compound 10-7] |
| 0.1 to 0.5 µM | CCn1cc(CNC(=O)c2nnn(-c3ccc(-c4c(C)nn(CC)c4C)cc3)c2C2CC2)cn1 [Compound 9-11] |
| 1 to 3 µM | COc1ccc(-c2ccc(-n3nnc(C(=O)Nc4ccncc4)c3C3CC3)cc2)cc1F [Compound 7-185] |
| 1 to 3 µM | Cn1ncc2c1CCCC2NC(=O)c1nnn(-c2ccc(-c3ccccc3)cc2)c1C1CC1 (stereo not shown) [Compound 14-38] |
| 0.1 to 0.5 µM | O=C(Nc1ccncc1)c1nnn(-c2ccc(-c3cc[nH]n3)cc2)c1C1CC1 [Compound 7-41] |
| 0.1 to 0.5 µM | CCc1ccc(C2(NC(=O)c3nnn(-c4ccc(-c5ccc(C#N)cc5)cc4)c3C3CC3)CC2)cn1 [Compound 18-2] |
| 0.1 to 0.5 µM | O=C(Nc1ccncc1)c1nnn(-c2ccc(-c3ccoc3)cc2)c1C1CC1 [Compound 7-32] |
| 1 to 3 µM | O=C(Nc1ccncc1)c1nnn(-c2cccc(-c3cnn(C4CC4)c3)c2)c1C1CC1 [Compound 7-314] |
| 0.1 to 0.5 µM | CC(=O)c1ccc(-c2ccc(-n3nnc(C(=O)Nc4ccncc4)c3C3CC3)cc2)cc1 [Compound 7-49] |
| 1 to 3 µM | Cc1ccc(-n2nnc(C(=O)Nc3ccncc3)c2C2CC2)cc1C [Compound 2-5] |
| 0.1 to 0.5 µM | CC(=O)c1ccc(-c2ccc(-n3nnc(C(=O)Nc4ccncc4)c3C3CC3)cc2C)cc1 [Compound 7-238] |
| 0.5 to 1 µM | Cc1ccc(-n2nnc(C(=O)Nc3ccncc3)c2C2CC2)c(F)c1 [Compound 2-2] |

| IC50 | Structure (SMILES) |
| --- | --- |
| 0.1 to 0.5 µM | CCc1cc(NC(=O)c2nnn(-c3ccc(-c4ccccc4)cc3)c2C2CC2)ccn1 [Compound 14-15, 1-([1,1′-biphenyl]-4-yl)-5-cyclopropyl-N-(2-ethylpyridin-4-yl)-1H-1,2,3-triazole-4-carboxamide] |
| 1 to 3 µM | Cc1cc(CNC(=O)c2nnn(-c3ccc(-c4ccccc4)cc3)c2C2CC2)nn1C [Compound 14-55] |
| 0.1 to 0.5 µM | COc1cc(C#N)ccc1-c1ccc(-n2nnc(C(=O)NCc3ccc(C)nc3)c2C2CC2)cc1 [Compound 7-48] |
| 1 to 3 µM | O=C(N[C@H]1CCC[C@@H](O)C1)c1nnn(-c2ccc(-c3ccccc3)cc2)c1C1CC1 [Compound 14-68] |
| < 0.1 µM | Cc1cc(NC(=O)c2nnn(-c3ccc(-c4c(C)nn(C)c4F)cc3F)c2C2CC2)ccn1 [Compound 7-224] |
| < 0.1 µM | Cc1nn(CC(F)(F)F)c(C)c1-c1ccc(-n2nnc(C(=O)Nc3ccncc3)c2C2CC2)cc1 [Compound 7-17] |
| 0.1 to 0.5 µM | CCn1nc(C)c(-c2ccc(-n3nnc(C(=O)NCc4cccnc4)c3C3CC3)cc2)c1C [Compound 9-25] |
| 0.5 to 1 µM | O=C(Nc1ccncc1)c1nnn(-c2ccc(-c3ccccc3F)cc2)c1C1CC1 [Compound 7-129] |
| < 0.1 µM | Cc1nn(C)c(C)c1-c1ccc(-n2nnc(C(=O)Nc3ccncc3)c2C(C)C)cc1 [Compound 17-10] |
| 0.5 to 1 µM | COc1cc(NC(=O)c2nnn(-c3ccc(-c4ccccc4)cc3)c2C2CC2)cc(C)n1 [Compound 14-23] |
| 0.5 to 1 µM | COCn1cc(-c2ccc(-n3nnc(C(=O)Nc4ccncc4)c3C3CC3)cc2)cn1 [Compound 7-158] |
| 1 to 3 µM | N#Cc1ccc(C2=CCC(n3nnc(C(=O)NC4(c5cccnc5)CC4)c3C3CC3)CC2)cc1 (stereo not shown) [Compound 12-9] |
| 0.5 to 1 µM | Cc1ccc(-n2nnc(C(=O)Nc3cc(F)nc(F)c3)c2C2CC2)cc1 [Compound 1-5] |
| 1 to 3 µM | CCn1cc(CNC(=O)c2nnn(-c3ccc(-c4ccc(C#N)cc4)cn3)c2C2CC2)cn1 [Compound 22-4] |
| 0.1 to 0.5 µM | CCn1cc(CNC(=O)c2nnn(-c3ccc(-c4ccc(C#N)cc4)cn3)c2C(C)C)cn1 [Compound 17-20] |
| 1 to 3 µM | N#Cc1ccccc1-c1ccc(-n2nnc(C(=O)Nc3ccncc3)c2C2CC2)cc1 [Compound 7-180] |
| 0.1 to 0.5 µM | Cc1cc(NC(=O)c2nnn(-c3ccc(-c4ccc(F)nc4)cc3)c2C2CC2)ccn1 [Compound 17-2] |
| < 0.1 µM | Cc1cc(NC(=O)c2nnn(-c3ccc(-c4c(C)nn(CC(F)(F)F)c4C)cc3)c2C2CC2)ccn1 [Compound 20-1, 5-cyclopropyl-1-(4-(3,5-dimethyl-1-(2,2,2-trifluoroethyl)-1H-pyrazol-4-yl)phenyl)-N-(2-methylpyridin-4-yl)-1H-1,2,3-triazole-4-carboxamide] |
| 1 to 3 µM | O=C(Nc1ccncc1)c1nnn(-c2ccc(-c3n[nH]c4cnccc34)cc2)c1C1CC1 [Compound 7-165] |
| 1 to 3 µM | O=C(N[C@H]1CCc2ccccc21)c1nnn(-c2ccc(-c3ccccc3)cc2)c1C1CC1 [Compound 14-57] |
